Measured values: patent US20210355104A1, “ADENOSINE RECEPTOR BINDING COMPOUNDS” (Nikang Therapeuticsm Inc., priority 2018, published 2021)
Where “and” joins values, the source holds several entries; their conditions need not be identical. Identical values can stand only once.

molecular target: Adenosine A2A receptor (Homo sapiens, UniProt P29274); test: cAMP assay in 293A cells stably expressing the adenosine A2A receptor (CGS21680 stimulation, HTRF); format: cell-based; set-up: expressed in transfected cells; host or cells: 293A cells (Invitrogen, Cat# R705-07) infected with A2A-expressing lentivirus (custom packaged by Biosettia), puromycin selected; conditions: 293A-A2AR cells, 0.1% BSA, 1 uM CGS; read-out: cAMP (nM) 0.1% BSA, 1 uM CGS
Sequence (P29274 whole entry): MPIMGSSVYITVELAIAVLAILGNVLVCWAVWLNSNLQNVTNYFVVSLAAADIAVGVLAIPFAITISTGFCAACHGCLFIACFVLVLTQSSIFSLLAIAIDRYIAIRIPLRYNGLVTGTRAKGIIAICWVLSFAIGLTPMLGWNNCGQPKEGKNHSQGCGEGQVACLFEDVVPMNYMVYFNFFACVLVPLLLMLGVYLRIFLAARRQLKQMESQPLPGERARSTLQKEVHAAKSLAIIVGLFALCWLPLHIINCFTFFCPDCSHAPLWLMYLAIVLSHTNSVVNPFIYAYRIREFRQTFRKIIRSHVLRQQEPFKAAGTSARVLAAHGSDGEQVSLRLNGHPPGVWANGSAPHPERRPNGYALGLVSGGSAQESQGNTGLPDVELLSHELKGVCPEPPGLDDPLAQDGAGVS

SMILES | IC50
Cc1cc(-c2c(OCCOc3cccc(CO)n3)nc(N)nc2-c2ccc(F)cc2)cc(C(F)F)n1 [Example 304, (6-(2-((2-amino-5-(2-(difluoromethyl)-6-methylpyridin-4-yl)-6-(4-fluorophenyl)pyrimidin-4-yl)oxy)ethoxy)pyridin-2-yl)methanol] | 681 nM
Cc1cc(-c2c(OCc3ccnc(N(C)C)n3)nc(N)nc2-c2ccc(F)cc2)cc(C(F)F)n1 [Example 307, 4-(((2-amino-5-(2-(difluoromethyl)-6-methylpyridin-4-yl)-6-(4-fluorophenyl)pyrimidin-4-yl)oxy)methyl)-N,N-dimethylpyrimidin-2-amine] | 211 nM and 246 nM
Cc1cc(-c2c(OCc3ccnc(C(C)(C)O)n3)nc(N)nc2-c2ccc(F)cc2)cc(C(F)F)n1 [Example 308] | 164 nM and 197 nM and 159 nM and 113 nM
Cc1cc(-c2c(OCc3cccc(N4CC[C@H](C(=O)O)C4)n3)nc(N)nc2-c2ccc(F)cc2)cc(C(F)F)n1 [Example 309, (S)-1-(6-(((2-amino-5-(2-(difluoromethyl)-6-methylpyridin-4-yl)-6-(4-fluorophenyl)pyrimidin-4-yl)oxy)methyl)pyridin-2-yl)pyrrolidine-3-carboxylic acid] | 1370 nM
Cc1cc(-c2c(OCc3cccc(N4CC[C@@H](C(=O)O)C4)n3)nc(N)nc2-c2ccc(F)cc2)cc(C(F)F)n1 [Example 310, (R)-1-(6-(((2-amino-5-(2-(difluoromethyl)-6-methylpyridin-4-yl)-6-(4-fluorophenyl)pyrimidin-4-yl)oxy)methyl)pyridin-2-yl)pyrrolidine-3-carboxylic acid] | 2490 nM
Cc1cc(-c2c(OCc3cccc(N4CCC[C@H]4C(=O)O)n3)nc(N)nc2-c2ccc(F)cc2)cc(C(F)F)n1 [Example 311, (6-(((2-amino-5-(2-(difluoromethyl)-6-methylpyridin-4-yl)-6-(4-fluorophenyl)pyrimidin-4-yl)oxy)methyl)pyridin-2-yl)-L-proline] | > 10000 nM
Cc1cc(-c2c(-c3cn(Cc4cccc(C(C)(C)O)n4)nn3)nc(N)nc2-c2cccc(C#N)c2C)cc(C(F)F)n1 [Example 312, 3-(2-amino-5-(2-(difluoromethyl)-6-methylpyridin-4-yl)-6-(1-((6-(2-hydroxypropan-2-yl)pyridin-2-yl)methyl)-1H-1,2,3-triazol-4-yl)pyrimidin-4-yl)-2-methylbenzonitrile] | 16600 nM
CCc1nn(C[C@H](O)CO)nc1COc1nc(N)nc(-c2ccc(F)cc2)c1-c1cc(C)nc(C(F)F)c1 [Example 316, (S)-3-(4-(((2-amino-5-(2-(difluoromethyl)-6-methylpyridin-4-yl)-6-(4-fluorophenyl)pyrimidin-4-yl)oxy)methyl)-5-ethyl-2H-1,2,3-triazol-2-yl)propane-1,2-diol] | 1080 nM
CCc1c(COc2nc(N)nc(-c3ccc(F)cc3)c2-c2cc(C)nc(C(F)F)c2)nnn1C[C@H](O)CO [Example 317, (S)-3-(4-(((2-amino-5-(2-(difluoromethyl)-6-methylpyridin-4-yl)-6-(4-fluorophenyl)pyrimidin-4-yl)oxy)methyl)-5-ethyl-1H-1,2,3-triazol-1-yl)propane-1,2-diol] | 1430 nM
CCc1nnn(C[C@H](O)CO)c1COc1nc(N)nc(-c2ccc(F)cc2)c1-c1cc(C)nc(C(F)F)c1 [Example 318, (S)-3-(5-(((2-amino-5-(2-(difluoromethyl)-6-methylpyridin-4-yl)-6-(4-fluorophenyl)pyrimidin-4-yl)oxy)methyl)-4-ethyl-1H-1,2,3-triazol-1-yl)propane-1,2-diol] | 1350 nM
Cc1cc(-c2c(OCc3cc4ccccc4n3C)nc(N)nc2-c2ccc(F)cc2)cc(C(F)F)n1 [Example 319, 5-(2-(difluoromethyl)-6-methylpyridin-4-yl)-4-(4-fluorophenyl)-6-((1-methyl-1H-indol-2-yl)methoxy)pyrimidin-2-amine] | 209 nM and 256 nM
CCc1nn(CC(O)COC)nc1COc1nc(N)nc(-c2ccc(F)cc2)c1-c1cc(C)nc(C(F)F)c1 (stereo not shown) [Example 321, 1-(4-(((2-amino-5-(2-(difluoromethyl)-6-methylpyridin-4-yl)-6-(4-fluorophenyl)pyrimidin-4-yl)oxy)methyl)-5-ethyl-2H-1,2,3-triazol-2-yl)-3-methoxypropan-2-ol] | 2290 nM
CCc1nnn(CC(O)COC)c1COc1nc(N)nc(-c2ccc(F)cc2)c1-c1cc(C)nc(C(F)F)c1 (stereo not shown) [Example 322, 1-(5-(((2-amino-5-(2-(difluoromethyl)-6-methylpyridin-4-yl)-6-(4-fluorophenyl)pyrimidin-4-yl)oxy)methyl)-4-ethyl-1H-1,2,3-triazol-1-yl)-3-methoxypropan-2-ol] | 2470 nM
CCc1c(COc2nc(N)nc(-c3ccc(F)cc3)c2-c2cc(C)nc(C(F)F)c2)nnn1CC(O)COC (stereo not shown) [Example 323, 1-(4-(((2-amino-5-(2-(difluoromethyl)-6-methylpyridin-4-yl)-6-(4-fluorophenyl)pyrimidin-4-yl)oxy)methyl)-5-ethyl-1H-1,2,3-triazol-1-yl)-3-methoxypropan-2-ol] | 1680 nM
CCc1nn(CC(C)(C)C#N)nc1COc1nc(N)nc(-c2ccc(F)cc2)c1-c1cc(C)nc(C(F)F)c1 [Example 324, 3-(4-(((2-amino-5-(2-(difluoromethyl)-6-methylpyridin-4-yl)-6-(4-fluorophenyl)pyrimidin-4-yl)oxy)methyl)-5-ethyl-2H-1,2,3-triazol-2-yl)-2,2-dimethylpropanenitrile] | 2080 nM
Cc1cc(-c2c(OCC3CC(C(=O)O)C3)nc(N)nc2-c2ccc(F)cc2)cc(C(F)F)n1 (stereo not shown) [Example 325, 3-(((2-amino-5-(2-(difluoromethyl)-6-methylpyridin-4-yl)-6-(4-fluorophenyl)pyrimidin-4-yl)oxy)methyl)cyclobutane-1-carboxylic acid] | > 25000 nM
Cc1cc(-c2c(OCc3cccc(N(C)CC(=O)O)n3)nc(N)nc2-c2ccc(F)cc2)cc(C(F)F)n1 [Example 327, N-(6-(((2-amino-5-(2-(difluoromethyl)-6-methylpyridin-4-yl)-6-(4-fluorophenyl)pyrimidin-4-yl)oxy)methyl)pyridin-2-yl)-N-methylglycine] | 4390 nM
Cc1cc(-c2c(OCc3cccc(N(C)CCC(=O)O)n3)nc(N)nc2-c2ccc(F)cc2)cc(C(F)F)n1 [Example 328, 3-((6-(((2-amino-5-(2-(difluoromethyl)-6-methylpyridin-4-yl)-6-(4-fluorophenyl)pyrimidin-4-yl)oxy)methyl)pyridin-2-yl)(methyl)amino) propanoic acid] | 4510 nM

Results, then the compound that gave them:

IC50 | SMILES
2550 nM | CCn1[nH]c(=O)cc1COc1nc(N)nc(-c2ccc(F)cc2)c1-c1cc(C)nc(C(F)F)c1 [Example 330, 5-(((2-amino-5-(2-(difluoromethyl)-6-methylpyridin-4-yl)-6-(4-fluorophenyl)pyrimidin-4-yl)oxy)methyl)-1-ethyl-1,2-dihydro-3H-pyrazol-3-one]
648 nM | Cc1cc(-c2c(OCc3cc4ccccc4o3)nc(N)nc2-c2ccc(F)cc2)cc(C(F)F)n1 [Example 331, 4-(benzofuran-2-ylmethoxy)-5-(2-(difluoromethyl)-6-methylpyridin-4-yl)-6-(4-fluorophenyl)pyrimidin-2-amine]
> 5000 nM | CCn1c(COc2nc(N)nc(-c3ccc(F)cc3)c2-c2cc(C)nc(C(F)F)c2)nc2ccc(C(=O)O)cc21 [Example 332, 2-(((2-amino-5-(2-(difluoromethyl)-6-methylpyridin-4-yl)-6-(4-fluorophenyl)pyrimidin-4-yl)oxy)methyl)-1-ethyl-1H-benzo[d]imidazole-6-carboxylic acid]
> 5000 nM | CCn1c(COc2nc(N)nc(-c3ccc(F)cc3)c2-c2cc(C)nc(C(F)F)c2)nc2cc(C(=O)O)ccc21 [Example 333, 2-(((2-amino-5-(2-(difluoromethyl)-6-methylpyridin-4-yl)-6-(4-fluorophenyl)pyrimidin-4-yl)oxy)methyl)-1-ethyl-1H-benzo[d]imidazole-5-carboxylic acid]
3170 nM | Cc1cc(-c2c(OCCn3ccc(C(=O)O)cc3=O)nc(N)nc2-c2ccc(F)cc2)cc(C(F)F)n1 [Example 334, 1-(2-((2-amino-5-(2-(difluoromethyl)-6-methylpyridin-4-yl)-6-(4-fluorophenyl)pyrimidin-4-yl)oxy)ethyl)-2-oxo-1,2-dihydropyridine-4-carboxylic acid]
> 25000 nM | Cc1cc(-c2c(OCCn3cccc(C(=O)O)c3=O)nc(N)nc2-c2ccc(F)cc2)cc(C(F)F)n1 [Example 335, 1-(2-((2-amino-5-(2-(difluoromethyl)-6-methylpyridin-4-yl)-6-(4-fluorophenyl)pyrimidin-4-yl)oxy)ethyl)-2-oxo-1,2-dihydropyridine-3-carboxylic acid]
> 25000 nM | Cc1cc(-c2c(OCCn3cc(C(=O)O)ccc3=O)nc(N)nc2-c2ccc(F)cc2)cc(C(F)F)n1 [Example 336, 1-(2-((2-amino-5-(2-(difluoromethyl)-6-methylpyridin-4-yl)-6-(4-fluorophenyl)pyrimidin-4-yl)oxy)ethyl)-6-oxo-1,6-dihydropyridine-3-carboxylic acid]
> 25000 nM | Cc1cc(-c2c(OCCOc3ncccc3C(=O)O)nc(N)nc2-c2ccc(F)cc2)cc(C(F)F)n1 [Example 337, 2-(2-((2-amino-5-(2-(difluoromethyl)-6-methylpyridin-4-yl)-6-(4-fluorophenyl)pyrimidin-4-yl)oxy)ethoxy)nicotinic acid]
2890 nM | Cc1cc(-c2c(OCc3cccc(OCCC(C)(C)C(=O)O)n3)nc(N)nc2-c2ccc(F)cc2)cc(C(F)F)n1 [Example 338, 4-((6-(((2-amino-5-(2-(difluoromethyl)-6-methylpyridin-4-yl)-6-(4-fluorophenyl)pyrimidin-4-yl)oxy)methyl)pyridin-2-yl)oxy)-2,2-dimethylbutanoic acid]
4080 nM | CCn1c(COc2nc(N)nc(-c3ccc(F)cc3)c2-c2cc(C)nc(C(F)F)c2)n[nH]c1=O [Example 340, 5-(((2-amino-5-(2-(difluoromethyl)-6-methylpyridin-4-yl)-6-(4-fluorophenyl)pyrimidin-4-yl)oxy)methyl)-4-ethyl-2,4-dihydro-3H-1,2,4-triazol-3-one]
